Counter-ions that a name gives are not always drawn.
Experiments:
human T-cells = test: Suppression of Human T-Cell Proliferation Assay (PHA-stimulated, [3H]-thymidine incorporation); format: cell-based; conditions: concentration inhibiting [3H]-thymidine incorporation of PHA-stimulated T-cells by 50%, 72 hours; TABLE 2; read-out: IC50
Procedure, shortened: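 Read-out is scintillation counting of [3H]-thymidine pulsed for the last 6 h of a 72 h, 37° C culture. Human T-cells, isolated from LeukoPaks by Lymphoprep and sheep-erythrocyte rosetting, were PHA-M activated (40 μg/ml stock) with compound dilutions added in duplicate wells.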

FKBP = FKBP (Homo sapiens, UniProt P62942); test: PPIase Inhibition Assay; format: biochemical; conditions: concentration of inhibitor required for 50% inhibition of enzyme activity; FKBP, substrate Succinyl-Ala-Phe-Pro-Phe-para-nitroanilide; TABLE I
Chain of FKBP (P62942 whole entry): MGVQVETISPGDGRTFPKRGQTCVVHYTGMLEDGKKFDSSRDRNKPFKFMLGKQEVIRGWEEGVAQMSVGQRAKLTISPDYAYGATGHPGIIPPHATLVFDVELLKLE
Procedure, shortened: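 Rates from p-nitroaniline release at 390 nm over 90 sec, fitted first-order, were converted to % activity remaining relative to uncatalyzed and uninhibited rates, with IC50 from linear regression of V-/V+ against inhibitor level. FKBP acted on Suc-Ala-Phe-Pro-Phe-pNA with excess chymotrypsin, HEPES pH 7.8, cold buffer.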

NF-AT = NF-AT Inhibition Assay Directed β-Galactosidase Expression in FGL-5 cells; format: cell-based; conditions: 50% inhibition of NF-AT directed β-galactosidase activity in FGL-5 cells stimulated with phorbol dibutyrate and ionomycin; TABLE 3
Procedure, shortened: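 FGL-5 Jurkat cells (3 million cells/ml) carry NF-AT-site-driven lacZ. They were stimulated with phorbol dibutyrate plus ionomycin and incubated with compound 16-18 h at 37 °C, in duplicate wells with matched ethanol or DMSO vehicle controls. β-Galactosidase was read as fluorescence from 4-methylumbelliferyl-β-D-galactoside cleavage, giving percent inhibition.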

| SMILES | IC50 (human T-cells) | IC50 (FKBP) | IC50 (NF-AT) |
| --- | --- | --- | --- |
| COc1cc(C(=O)CN2CCC[C@H]2C(=O)NCCc2ccc(N)cc2)cc(OC)c1OC [Example 125, L-Proline, 1-[2-(3,4,5-Trimethoxyphenyl)-2-Oxoethyl] 2-(4-aminophenyl)ethylamide Dihydrochloride] | > 15 µM | > 5 µM | > 15 µM |
| C=CCOC(=O)Nc1ccc(CCCOC(=O)[C@@H]2CCCN2CC(=O)c2cc(OC)c(OC)c(OC)c2)cc1 [Example 126, L-Proline, 1-[2-(3,4,5-Trimethoxyphenyl)-2-Oxoethyl] 3-(4-[N-Carboallyloxy]aminophenyl)propyl Ester Hydrochloride] | 10 µM | > 5 µM | > 15 µM |
| COc1cc(C(=O)CN2CCC[C@H]2C(=O)NCC(=O)c2ccccc2)cc(OC)c1OC [Example 127, L-Proline, 1-[2-(3,4,5-Trimethoxyphenyl)-2-Oxoethyl] 2-Phenyl-2-oxoethylamide] | > 15 µM | > 5 µM | > 15 µM |
| COc1cc(C(=O)CN2CCC[C@H]2C(=O)NCC2CCCO2)cc(OC)c1OC (stereo partly drawn) [Example 128, L-Proline, 1-[2-(3,4,5-Trimethoxyphenyl)-2-Oxoethyl] Tetrahydrofurfurylamide] | 4 µM | > 5 µM | > 15 µM |
| COc1cc(C(=O)CN2CCC[C@H]2C(=O)NCc2cccc3ccccc23)cc(OC)c1OC [Example 129, L-Proline, 1-[2-(3,4,5-Trimethoxyphenyl)-2-Oxoethyl] Naphthalen-1-ylmethylamide] | 10 µM | > 5 µM | > 15 µM |
| COc1cc(C(=O)CN2CCC[C@H]2C(=O)NCCc2ccc(S(N)(=O)=O)cc2)cc(OC)c1OC [Example 130, L-Proline, 1-[2-(3,4,5-Trimethoxyphenyl)-2-Oxoethyl] 2-(4-Sulfamoylphenyl)ethylamide] | 4 µM | > 5 µM | > 15 µM |
| COc1cc(C(=O)CN2CCC[C@H]2C(=O)N2CCC(c3ccccc3)CC2)cc(OC)c1OC [Example 131, L-Proline, 1-[2-(3,4,5-Trimethoxyphenyl)-2-Oxoethyl] 4-Phenylpiperldenylamide] | 22 µM | > 5 µM | > 33 µM |
| COc1ccc(CNC(=O)[C@@H]2CCCN2CC(=O)c2cc(OC)c(OC)c(OC)c2)cc1 [Example 132, L-Proline, 1-[2-(3,4,5-Trimethoxyphenyl)-2-Oxoethyl] 4-Methoxybenzamide Hydrochloride] | 24 µM | > 5 µM | > 33 µM |
| COc1cccc(CNC(=O)[C@@H]2CCCN2CC(=O)c2cc(OC)c(OC)c(OC)c2)c1 [Example 133, L-Proline, 1-[2-(3,4,5-Trimethoxyphenyl)-2-Oxoethyl] 3-Methoxybenzamide Hydrochloride] | 22 µM | > 5 µM | > 33 µM |
| COc1ccccc1CNC(=O)[C@@H]1CCCN1CC(=O)c1cc(OC)c(OC)c(OC)c1 [Example 134, L-Proline, 1-[2-(3,4,5-Trimethoxyphenyl)-2-Oxoethyl] 2-Methoxybenzamide Hydrochloride] | 19 µM | > 5 µM | > 33 µM |
| COc1cc(C(=O)CN2CCC[C@H]2C(=O)N(C)CCc2ccccc2)cc(OC)c1OC [Example 135, L-Proline, 1-[2-(3,4,5-Trimethoxyphenyl)-2-Oxoethyl] N-MethylphenethylamideHydrochloride] | 14 µM | > 5 µM | > 33 µM |
| COc1cc(C(=O)CN2CCC[C@H]2C(=O)N[C@@H](C)c2ccccc2)cc(OC)c1OC [Example 136, L-Proline, 1-[2-(3,4,5-Trimethoxyphenyl)-2-Oxoethyl] (S)-α-methylbenzylamide Hydrochloride] | 7 µM | > 5 µM | > 33 µM |
| COc1cc(C(=O)CN2CCC[C@H]2C(=O)N[C@H](C)c2ccccc2)cc(OC)c1OC [Example 137, L-Proline, 1-[2-(3,4,5-Trimethoxyphenyl)-2-Oxoethyl] (R)-α-methylbenzylamide Hydrochloride] | 16 µM | > 5 µM | > 33 µM |
| COc1cc(C(=O)CN2CCC[C@H]2C(=O)NC(C)CCc2ccccc2)cc(OC)c1OC (stereo partly drawn) [Example 138, L-Proline, 1-[2-(3,4,5-Trimethoxyphenyl)-2-Oxoethyl] 1-methyl-3-phenylpropylamide Hydrochloride] | 18 µM | > 5 µM | > 33 µM |
| COc1cc(C(=O)CN2CCC[C@H]2C(=O)NCC23CC4CC(CC(C4)C2)C3)cc(OC)c1OC [Example 139, L-Proline, 1-[2-(3,4,5-Trimethoxyphenyl)-2-Oxoethyl] Adamant-1-ylmethylamide Hydrochloride] | 4 µM | > 5 µM | > 33 µM |
| COc1cc(C(=O)CN2CCC[C@H]2C(=O)N[C@H](C)c2cccc3ccccc23)cc(OC)c1OC [Example 140, L-Proline, 1-[2-(3,4,5-Trimethoxyphenyl)-2-Oxoethyl] 1-(R)-(1-naphthyl)ethylamide Hydrochloride] | 10 µM | > 5 µM | > 33 µM |
| COc1cc(C(=O)CN2CCC[C@H]2C(=O)NCC2CCCCC2)cc(OC)c1OC [Example 141, L-Proline, 1-[2-(3,4,5-Trimethoxylphenyl)-2-Oxoethyl] Cyclohexylmethylamide] | 7 µM | > 5 µM | > 33 µM |
| COc1cc(C(=O)CN2CCC[C@H]2C(=O)NC(c2ccccc2)c2ccccc2)cc(OC)c1OC [Example 142, L-Proline, 1-[2-(3,4,5-Trimethoxyphenyl)-2-Oxoethyl] Diphenylmethylamide Hydrochloride] | 12 µM | > 5 µM | > 33 µM |
| COc1cc(C(=O)CN2CCC[C@H]2C(=O)NC(C)(C)C)cc(OC)c1OC [Example 143, L-Proline, 1-[2-(3,4,5-Trimethoxyphenyl)-2-Oxoethyl] tert-Butylamide Hydrochloride] | 3 µM | > 5 µM | > 33 µM |
| COc1cc(C(=O)CN2CCC[C@H]2C(=O)NC(Cc2ccccc2)c2ccccc2)cc(OC)c1OC (stereo partly drawn) [Example 144, L-Proline, 1-[2-(3,4,5-Trimethoxyphenyl)-2-Oxoethyl] 1,2-DiphenylethylamideHydrochloride] | 19 µM | > 5 µM | > 33 µM |
| COc1cc(C(=O)CN2CCC[C@H]2C(=O)NC2CCCCC2)cc(OC)c1OC [Example 145, L-Proline, 1-[2-(3,4,5-Trimethoxyphenyl)-2-Oxoethyl] Cyclohexyl amide Hydrochloride] | 4 µM | > 5 µM | > 33 µM |
| COc1cc(C(=O)CN2CCCC[C@H]2C(=O)NCc2ccccc2)cc(OC)c1OC [Example 146, L-Homoproline, 1-[2-(3,4,5-Trimethoxyphenyl)-2-Oxoethyl] Benzylamide Hydrochloride] | > 15 µM | > 5 µM | > 15 µM |
| COc1cc(C(=O)CN2CCCC[C@H]2C(=O)NCC23CC4CC(CC(C4)C2)C3)cc(OC)c1OC [Example 147, L-Homoproline, 1-[2-(3,4,5-Trimethoxyphenyl)-2-Oxoethyl] Adamant-1-ylmethylamide Hydrochloride] | 8 µM | > 5 µM | > 15 µM |
